Our source for the IC50 values is paper PMC10882993, “Protecting the Achilles heel: three FolE_I-type GTP-cyclohydrolases needed for full growth of metal-resistant Cupriavidus metallidurans under a variety of conditions” (Journal of Bacteriology, 2024).

Common to all, as to experiment: microbe, parasite or virus in culture
For assay [1], the system named is T1, Cupriavidus metallidurans AE104.
T1 construct: AE104
On the set-up: growth inhibition of bacterial culture by metal chelators. An excerpt: EDTA, membrane-permeant TPEN, and DIP complex divalent transition metal cations with similar stability constants, EDTA with Cu > Ni > Zn > Co > Fe = Mn, TPEN with a similar ranking but higher stability constants, and DIP with Cu = Fe > Zn in an inverted arrangement ([43][–][45]). The ∆folE single and double mutants grew with only a slight delay compared to the parental strain AE104 in the presence of TPEN (Fig. S8), and the IC50 values for the ∆folE single mutants and TPEN were not different from that of the parent AE104 (Table S8). When the gene for the zinc importer ZupT was deleted, the IC50 values of all strains decreased below 0.5 µM TPEN, again without differences between the mutants and the ∆zupT parent (Fig. S8C). […] Due to large deviations, not much influence of TPEN on the growth of the ∆folE mutants could be measured. […] In contrast, TPEN mediated an overall decrease of metal availability. In the presence of DIP, growth of both ∆folE_IB mutants of strain AE104 was similar to their parent, but the ∆folE_IA mutant was more sensitive to DIP (Fig. S9A) with a decrease in the IC50 value from about 60 µM to 36 ± 7 µM (Table S8). The zinc content of the four strains in the presence of 25 µM DIP was similar, but the cobalt content was decreased (Table S6). […]

Assay [2] has the same test system. On the set-up: growth inhibition of bacterial culture by oxidative stress agents. The note with it: read-out: PQ.
Assay [3] has the same test system. On the set-up: growth inhibition of bacterial culture, final turbidity in TMM medium. The note with it: read-out: TMP,. The protocol:
Trimethoprim and sulfonamide interfere with THF biosynthesis in steps downstream of the reaction catalyzed by the FolE_I-type enzymes. Neither substance induced an up-regulation of folE_IB1 or folE_IA (Table S2), but TMP did induce expression of pfl-glyA (Table S1). The ∆folE_IB1 mutant of strain AE104 was less resistant to trimethoprim than its wild-type parent or the other two ∆folE deletion mutants (Fig. 7A), and the IC50 for trimethoprim decreased from 4 to 3.3 mg/L (Table S9). Resistance to trimethoprim was not affected in the ∆folE_IB2 ∆folE_IA mutant with FolE_IB1 only, but it was in the two double mutants that carried a ∆folE_IB1 deletion (Fig. 7). Resistance to TMP decreased in the ∆zupT ∆folE_IB1 but not in the ∆zur ∆folE_IB1 mutant (Fig. 7B and C). […] Since TMP decreased the concentration of fTHF as shown by the up-regulation of pfl-glyA-lacZ expression, an increased folate production was needed to counteract inhibition of a later step of folate biosynthesis by TMP. This explains the need for the activity of both FolE_IA and FolE_IB1 to resist TMP inhibition. […] Final turbidity of C. metallidurans strains in medium zinc TMM containing varying concentrations of trimethoprim is shown for derivatives of strain AE104 single (panel A) and double (panel B) mutants, ∆zupT (panel C), and ∆zur single mutants (panel D). […]

Values after ≈ are worked out from the molar mass of the structure shown. Where two headings read alike, the source gives them in different places.

Regarding `c1ccc(-c2ccccn2)nc1` [DIP, dipyridyl], the IC50 in assay [1] (read-out: DIP) stood at 57 ± 4 µM.
With `C[n+]1ccc(-c2cc[n+](C)cc2)cc1` [PQ, paraquat], the IC50 in assay [2] came to 181 ± 17 µM.
As to `c1ccc(CN(CCN(Cc2ccccn2)Cc2ccccn2)Cc2ccccn2)nc1` [TPEN, N,N,N′,N′-tetrakis(2-pyridinylmethyl)-1,2-ethanediamine], the IC50 in assay [1] (read-out: TPEN) was found to be 1.1 ± 0.4 µM.
For the compound `COc1cc(Cc2cnc(N)nc2N)cc(OC)c1OC` [TMP, trimethoprim], the IC50 in assay [3] came out at 4 ± 0.2 µg/mL (≈ 13.8 µM).
